{"source": "patent US10358683B2", "about": "“Compositions and methods for determining whether a subject would benefit from co-receptor inhibitor therapy” (priority 2007, dated 2019)", "key": {"Dual_X-tropic viruses": {"test_system": "Dual_X-tropic viruses", "settings": "fully replication competent Dual_X-tropic viruses, PBMCs", "protocol": "(§1) First, 35 gp160 envelope genes derived from different patient samples that were originally identified as dual-tropic were cloned into an expression vector as described in Example 1. Tropism of pseudotyped virus was determined by measuring luciferase activity (relative light units, RLU) following infection of U87/CD4+CCR5+ or U87/CD4+CXCR4+ cells as described above. Inhibition of infection by small molecule CCR5-(Merck) and CXCR4-(AMD3100; AnorMED) inhibitors was examined on U87/CD4+CCR5+CXCR4+ cells, U87/CD4+CXCR4+ cells, and U87/CD4+CCR5+ cells. A subset of the envelope genes were also inserted into an NL4-3 infectious clone and evaluated for their ability to infect PBMCs in the presence of the CCR5- or CXCR4-inhibitors."}, "[1]": {"test_system": "dual-tropic HIV-1 variants", "settings": "for suppression of CXCR4-tropic virus: patients, 10 days of therapy", "protocol": "First, samples from 26 subjects administered AMD3100 for 10 days were obtained prior to therapy and on day 11 following the 10 days of therapy. Co-receptor tropism of the viral populations from both sets of samples were then determined according to Example 1. […] 37(2):1253-62."}, "[2]": {"test_system": "primarily CXCR4-tropic viruses", "assay": "Entry of pseudotyped viruses into U87 cells in presence of co-receptor inhibitors (FIG. 5)", "format": "cell-based, HIV-1", "protocol": "(§2) Susceptibility assays for HIV-1 entry inhibitors were performed using packaging host cells consisting of the human embryonic kidney cell line 293 (Cell Culture Facility, UC San Francisco, SF, Calif.) and target host cells consisting of a human osteosarcoma (HOS) cell line expressing CD4 (HT4) plus CCR5, and CXCR4, or astrocytoma (U-87) cell lines expressing either CD4 and CCR5 or CD4 and CXCR4.\n(§3) Drug susceptibility testing was performed using pHIVenv and pHIVluc or pHIVlucΔU3. Pseudotyped HIV particles containing envelope proteins encoded by the subject derived segment were produced by transfecting a packaging host cell (HEK 293) with resistance test vector DNA. […] After infection (˜72 h) the target cells are lysed and luciferase activity is measured. […] The amount of luciferase activity detected in the infected cells is used as a direct measure of “infectivity” (FIGS. 1 and 2). […]\n(§4) Drug susceptibility is assessed by comparing the infectivity in the absence of drug to infectivity in the presence of drug. […]\n(§5) First, 35 gp160 envelope genes derived from different patient samples that were originally identified as dual-tropic were cloned into an expression vector as described in Example 1. Tropism of pseudotyped virus was determined by measuring luciferase activity (relative light units, RLU) following infection of U87/CD4+CCR5+ or U87/CD4+CXCR4+ cells as described above. […]"}, "Clone 34 (X4 >> R5_1)": {"test_system": "Clone 34 (X4 >> R5_1)", "format": "cell-based, HIV-1", "settings": "PBMCs; Clone 34 envelope in NL4-3 infectious clone, tropism subtype X4 >> R5", "protocol": "as §1"}, "Clone 26 (R5~X4_1)": {"test_system": "Clone 26 (R5~X4_1)", "format": "cell-based, HIV-1", "settings": "PBMCs; Clone 26 envelope in NL4-3 infectious clone, tropism subtype R5~X4", "protocol": "as §1"}, "NL43 (X4)": {"test_system": "NL43 (X4)", "format": "cell-based, HIV-1", "settings": "PBMCs; NL43, tropism subtype X4", "protocol": "as §1"}, "Clone 11 (R5 >> X4_2)": {"test_system": "Clone 11 (R5 >> X4_2)", "format": "cell-based, HIV-1", "settings": "PBMCs; Clone 11 envelope in NL4-3 infectious clone, tropism subtype R5 >> X4", "protocol": "as §1"}, "Clone 4 (R5 >> X4_1)": {"test_system": "Clone 4 (R5 >> X4_1)", "format": "cell-based, HIV-1", "settings": "PBMCs; Clone 4 envelope in NL4-3 infectious clone, tropism subtype R5 >> X4", "protocol": "as §1"}, "Clone 25 (R5~X4_2)": {"test_system": "Clone 25 (R5~X4_2)", "format": "cell-based, HIV-1", "settings": "PBMCs; Clone 25 envelope in NL4-3 infectious clone, tropism subtype R5~X4", "protocol": "as §1"}, "Clone 33 (X4 >> R5_2)": {"test_system": "Clone 33 (X4 >> R5_2)", "format": "cell-based, HIV-1", "settings": "PBMCs; Clone 33 envelope in NL4-3 infectious clone, tropism subtype X4 >> R5", "protocol": "as §1"}, "Clone 22 (R5~X4_4)": {"test_system": "Clone 22 (R5~X4_4)", "format": "cell-based, HIV-1", "settings": "PBMCs; Clone 22 envelope in NL4-3 infectious clone, tropism subtype R5~X4", "protocol": "as §1"}, "JRCSF (R5)": {"test_system": "JRCSF (R5)", "format": "cell-based, HIV-1", "settings": "PBMCs, tropism subtype R5", "protocol": "as §1"}, "Clone 31 (X4 >> R5_3)": {"test_system": "Clone 31 (X4 >> R5_3)", "format": "cell-based, HIV-1", "settings": "PBMCs; Clone 31 envelope in NL4-3 infectious clone, tropism subtype X4 >> R5", "protocol": "as §1"}, "Clone 28 (R5~X4_3)": {"test_system": "Clone 28 (R5~X4_3)", "format": "cell-based, HIV-1", "settings": "PBMCs; Clone 28 envelope in NL4-3 infectious clone, tropism subtype R5~X4", "protocol": "as §1"}, "dual-tropic viruses": {"test_system": "dual-tropic viruses", "assay": "Infection of PBMCs by fully replication competent viruses (FIG. 7, summary)", "format": "cell-based, HIV-1", "protocol": "as §1"}, "[3]": {"test_system": "primarily CCR5-tropic viruses", "format": "cell-based, HIV-1", "settings": "primarily CCR5-tropic viruses into CCR5- and CXCR4-expressing cells", "protocol": "as §2, §3, §4, §5"}, "[4]": {"settings": "subjects with mixed populations, following treatment"}}, "note": "Where two headings read alike, the source gives them in different places."}
{"smiles": "c1cc(CN2CCCNCCNCCCNCC2)ccc1CN1CCCNCCNCCCNCC1", "note": "[AMD, AMD3100]", "values": [{"measurement": "inhibition of entry", "setting": "Dual_X-tropic viruses", "result": "substantially inhibited"}, {"measurement": "suppression of CXCR4-tropic virus", "setting": "[1]; populations comprising 100% dual viruses (homogeneous) at baseline", "result": "not suppressed"}, {"measurement": "suppression of CXCR4-tropic virus", "setting": "[1]; populations containing mixtures of CCR5-tropic and CXCR4-tropic or dual-tropic viruses at baseline", "result": "experienced suppression"}, {"measurement": "entry into cells using the CXCR4 co-receptor", "setting": "[1]; [4]", "result": "efficiently blocked"}, {"measurement": "entry using the CCR5 co-receptor", "setting": "[1]; [4]", "result": "unaffected"}, {"measurement": "inhibition of entry", "setting": "[2]; primarily CXCR4-tropic viruses into CCR5- and CXCR4-expressing cells", "result": "inhibited"}, {"measurement": "inhibition of entry", "setting": "[2]; primarily CXCR4-tropic viruses into CXCR4-expressing cells", "result": "inhibited"}, {"measurement": "% inhibition", "setting": "Clone 34 (X4 >> R5_1)", "result": 99, "unit": "%"}, {"measurement": "% inhibition", "setting": "Clone 26 (R5~X4_1)", "result": 41, "unit": "%"}, {"measurement": "% inhibition", "setting": "NL43 (X4)", "result": 99, "unit": "%"}, {"measurement": "% inhibition", "setting": "Clone 11 (R5 >> X4_2)", "result": "−3", "unit": "%"}, {"measurement": "% inhibition", "setting": "Clone 4 (R5 >> X4_1)", "result": "−1", "unit": "%"}, {"measurement": "% inhibition", "setting": "Clone 25 (R5~X4_2)", "result": 27, "unit": "%"}, {"measurement": "% inhibition", "setting": "Clone 33 (X4 >> R5_2)", "result": 99, "unit": "%"}, {"measurement": "% inhibition", "setting": "Clone 22 (R5~X4_4)", "result": "−12", "unit": "%"}, {"measurement": "% inhibition", "setting": "JRCSF (R5)", "result": 11, "unit": "%"}, {"measurement": "% inhibition", "setting": "Clone 31 (X4 >> R5_3)", "result": 98, "unit": "%"}, {"measurement": "% inhibition", "setting": "Clone 28 (R5~X4_3)", "result": 19, "unit": "%"}, {"measurement": "inhibition of entry", "setting": "dual-tropic viruses", "result": "partially inhibited"}, {"measurement": "inhibition of entry", "setting": "[3]", "result": "not inhibited"}]}
